# Results: US10294202B2, “Pyrrolidinones as herbicides” (FMC Corporation, priority 2013, dated 2019)
# What was measured:
# pigweed = test: Test A pre-/postemergence herbicide test; assay type: in vivo, Amaranthus retroflexus
# Method in brief: (§1)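 Both application timings used compounds in a non-phytotoxic solvent plus surfactant. Pre-emergence: soil sprayed directly after seeding into loam/sand. Post-emergence: foliage of 2–10 cm seedlings (1–2 leaves) sprayed. Injury rated ~10 days later, 0–100.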
# barnyardgrass [1] = test: Test B flooded paddy test; assay type: in vivo, Echinochloa crus-galli; conditions: 500 g ai/ha, Flood; scale of 0 to 100 where 0 is no effect and 100 is complete control
# Method in brief: (§2)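 Scoring: visual, compared with untreated controls, 0 = no effect through 100 = complete control, taken 13 to 15 days after treatment in the greenhouse. Compounds had been added to paddy water over soil flooded 3 cm deep at the plants' 2-leaf stage.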
# giant foxtail = test: Test A pre-/postemergence herbicide test; assay type: in vivo, Setaria faberii
# Method in brief: as §1
# ragweed = test: Test A pre-/postemergence herbicide test; assay type: in vivo, Ambrosia elatior
# Method in brief: as §1
# corn = test: Test A pre-/postemergence herbicide test; assay type: in vivo, Zea mays; conditions: Postemergence
# Method in brief: as §1
# ryegrass, Italian = test: Test A pre-/postemergence herbicide test; assay type: in vivo, Lolium multiflorum
# Method in brief: as §1
# wheat = test: Test A pre-/postemergence herbicide test; assay type: in vivo, Triticum aestivum; conditions: Postemergence
# Method in brief: as §1
# blackgrass = test: Test A postemergence herbicide test; assay type: in vivo, Alopecurus myosuroides
# Method in brief: (§3)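 Plants at the one- to two-leaf stage, 2–10 cm tall, grown in loam/sand pots, received postemergence sprays of the test chemicals. After about 10 days in the greenhouse, injury was scored visually against untreated controls on a 0–100 scale (0 none, 100 complete control).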
# kochia = test: Test A pre-/postemergence herbicide test; assay type: in vivo, Kochia scoparia
# Method in brief: as §1
# ducksalad = test: Test B flooded paddy test; assay type: in vivo, Heteranthera limosa; conditions: 500 g ai/ha, Flood; scale of 0 to 100 where 0 is no effect and 100 is complete control
# Method in brief: as §2
# barnyardgrass [2] = test: Test A pre-/postemergence herbicide test; assay type: in vivo, Echinochloa crus-galli
# Method in brief: as §1
# rice = test: Test B flooded paddy test; assay type: in vivo, Oryza sativa; conditions: 500 g ai/ha, Flood; scale of 0 to 100 where 0 is no effect and 100 is complete control
# Method in brief: as §2
# galium = test: Test A postemergence herbicide test; assay type: in vivo, Galium aparine
# Method in brief: as §3
# sedge, umbrella = test: Test B flooded paddy test; assay type: in vivo, Cyperus difformis; conditions: 500 g ai/ha, Flood; scale of 0 to 100 where 0 is no effect and 100 is complete control
# Method in brief: as §2
# [3] = Postemergence, 125 g ai/ha, visual rating on 0 to 100 scale (0 no effect, 100 complete control), approx. 10 days
# [4] = Preemergence, 125 g ai/ha, 0 to 100 scale where 0 is no effect and 100 is complete control
# [5] = Preemergence, 500 g ai/ha, visual rating on 0 to 100 scale (0 no effect, 100 complete control)
# [6] = Postemergence, 500 g ai/ha, 0 to 100 scale (0 no effect, 100 complete control)
# [7] = 125 g ai/ha, visual rating on 0 to 100 scale (0 no effect, 100 complete control), approx. 10 days
# [8] = 500 g ai/ha, 0 to 100 scale (0 no effect, 100 complete control)
# [9] = 125 g ai/ha, visual rating, 0 to 100 scale, 0 no effect, 100 complete control, approximately 10 days, preemergence
# [10] = Postemergence, 125 g ai/ha, 0 to 100 scale, 0 is no effect, 100 is complete control
# [11] = preemergence, 500 g ai/ha, 0 to 100 scale, 0 is no effect and 100 is complete control
# [12] = 125 g ai/ha, 0 to 100 scale, 0 is no effect, 100 is complete control
smiles,measurement,setting,value
O=C1NCC(c2cccc(-n3cccn3)c2)C1C(=O)Nc1cccc(F)c1F (stereo not drawn) [Compound 337],"Plant response rating, Pigweed",pigweed; [3],0
same,"Plant response rating, Pigweed",pigweed; [4],0
same,Pigweed plant response rating,pigweed; [5],0
same,"Plant response rating, Barnyardgrass",barnyardgrass [1],0
same,"Plant response rating, Foxtail, Giant",giant foxtail; [3],0
same,"Plant response rating, Foxtail, Giant",giant foxtail; [6],40
same,"Plant response rating, Foxtail, Giant",giant foxtail; [4],0
same,"Foxtail, Giant plant response rating",giant foxtail; [5],30
same,"Plant response rating, Ragweed",ragweed; [3],0
same,"Plant response rating, Ragweed",ragweed; [4],0
same,Ragweed plant response rating,ragweed; [5],0
same,"Plant response rating, Corn",corn; [7],0
same,"Plant response rating, Corn",corn; [8],0
same,"Plant response rating, Ryegrass, Italian","ryegrass, Italian; [3]",0
same,"Plant response rating, Ryegrass, Italian","ryegrass, Italian; [4]",0
same,"Ryegrass, Italian plant response rating","ryegrass, Italian; [5]",0
same,"Plant response rating, Wheat",wheat; [7],0
same,"Plant response rating, Blackgrass",blackgrass; [7],0
same,"Plant response rating, Blackgrass",blackgrass; [8],0
same,"Plant response rating, Kochia",kochia; [3],0
same,"Plant response rating, Kochia",kochia; [4],0
same,Kochia plant response rating,kochia; [5],0
same,"Plant response rating, Ducksalad",ducksalad,0
same,"Plant response rating, Barnyardgrass",barnyardgrass [2]; [3],0
same,"Plant response rating, Barnyardgrass",barnyardgrass [2]; [6],50
same,"Plant response rating, Barnyardgrass",barnyardgrass [2]; [4],0
same,Barnyardgrass plant response rating,barnyardgrass [2]; [5],20
same,"Plant response rating, Rice",rice,0
same,"Plant response rating, Galium",galium; [7],0
same,"Plant response rating, Sedge, Umbrella","sedge, umbrella",0
O=C1NCC(c2cccc(Oc3ccccc3)c2)C1C(=O)Nc1ccccc1F (stereo not drawn) [Compound 330],"Plant response rating, Pigweed",pigweed; [3],0
same,"Plant response rating, Pigweed",pigweed; [6],0
same,"Plant response rating, Pigweed",pigweed; [4],0
same,Pigweed plant response rating,pigweed; [5],20
same,"Plant response rating, Barnyardgrass",barnyardgrass [1],0
same,"Plant response rating, Foxtail, Giant",giant foxtail; [3],80
same,"Plant response rating, Foxtail, Giant",giant foxtail; [6],80
same,"Plant response rating, Foxtail, Giant",giant foxtail; [4],50
same,"Foxtail, Giant plant response rating",giant foxtail; [5],80
same,"Plant response rating, Ragweed",ragweed; [3],0
same,"Plant response rating, Ragweed",ragweed; [6],0
same,"Plant response rating, Ragweed",ragweed; [4],0
same,Ragweed plant response rating,ragweed; [5],0
same,"Plant response rating, Corn",corn; [7],0
same,"Plant response rating, Corn",corn; [8],0
same,"Plant response rating, Ryegrass, Italian","ryegrass, Italian; [3]",0
same,"Plant response rating, Ryegrass, Italian","ryegrass, Italian; [6]",0
same,"Plant response rating, Ryegrass, Italian","ryegrass, Italian; [4]",30
same,"Ryegrass, Italian plant response rating","ryegrass, Italian; [5]",40
same,"Plant response rating, Wheat",wheat; [7],0
same,"Plant response rating, Wheat",wheat; [8],0
same,"Plant response rating, Blackgrass",blackgrass; [7],0
same,"Plant response rating, Blackgrass",blackgrass; [8],0
same,"Plant response rating, Kochia",kochia; [3],0
same,"Plant response rating, Kochia",kochia; [6],0
same,"Plant response rating, Kochia",kochia; [4],20
same,Kochia plant response rating,kochia; [5],20
same,"Plant response rating, Ducksalad",ducksalad,100
same,"Plant response rating, Barnyardgrass",barnyardgrass [2]; [3],60
same,"Plant response rating, Barnyardgrass",barnyardgrass [2]; [6],60
same,"Plant response rating, Barnyardgrass",barnyardgrass [2]; [4],60
same,Barnyardgrass plant response rating,barnyardgrass [2]; [5],70
same,"Plant response rating, Rice",rice,0
same,"Plant response rating, Galium",galium; [7],20
same,"Plant response rating, Galium",galium; [8],30
same,"Plant response rating, Sedge, Umbrella","sedge, umbrella",0
O=C1NCC(c2ccc(OC(F)F)cc2)C1C(=O)Nc1ccccc1Cl (stereo not drawn) [Compound 226],"Plant response rating, Pigweed",pigweed; [9],0
same,"Plant response rating, Pigweed",pigweed; [10],0
same,"Pigweed plant response rating (0 to 100 scale, 0 is no effect, 100 is complete control)","pigweed; Postemergence, 500 g ai/ha",0
same,"Plant response rating, Pigweed",pigweed; [11],30
same,"Plant response rating, Barnyardgrass",barnyardgrass [1],0
same,"Plant response rating, Foxtail, Giant",giant foxtail; [9],70
same,"Plant response rating, Foxtail, Giant",giant foxtail; [10],70
same,"Foxtail, Giant plant response rating (0 to 100 scale, 0 is no effect, 100 is complete control)","giant foxtail; Postemergence, 500 g ai/ha",80
same,"Plant response rating, Foxtail, Giant",giant foxtail; [11],90
same,"Plant response rating, Ragweed",ragweed; [9],0
same,"Plant response rating, Ragweed",ragweed; [10],0
same,"Ragweed plant response rating (0 to 100 scale, 0 is no effect, 100 is complete control)","ragweed; Postemergence, 500 g ai/ha",0
same,"Plant response rating, Ragweed",ragweed; [11],0
same,"Plant response rating, Corn",corn; [12],0
same,"Corn plant response rating (0 to 100 scale, 0 is no effect, 100 is complete control)",corn; 500 g ai/ha,0
same,"Plant response rating, Ryegrass, Italian","ryegrass, Italian; [9]",0
same,"Plant response rating, Ryegrass, Italian","ryegrass, Italian; [10]",0
same,"Ryegrass, Italian plant response rating (0 to 100 scale, 0 is no effect, 100 is complete control)","ryegrass, Italian; Postemergence, 500 g ai/ha",20
same,"Plant response rating, Ryegrass, Italian","ryegrass, Italian; [11]",20
same,"Plant response rating, Wheat",wheat; [12],0
same,"Wheat plant response rating (0 to 100 scale, 0 is no effect, 100 is complete control)",wheat; 500 g ai/ha,0
same,"Plant response rating, Blackgrass",blackgrass; [12],20
same,"Blackgrass plant response rating (0 to 100 scale, 0 is no effect, 100 is complete control)",blackgrass; 500 g ai/ha,30
same,"Plant response rating, Kochia",kochia; [9],0
same,"Plant response rating, Kochia",kochia; [10],30
same,"Kochia plant response rating (0 to 100 scale, 0 is no effect, 100 is complete control)","kochia; Postemergence, 500 g ai/ha",50
same,"Plant response rating, Kochia",kochia; [11],30
same,"Plant response rating, Ducksalad",ducksalad,100
same,"Plant response rating, Barnyardgrass",barnyardgrass [2]; [9],50
same,"Plant response rating, Barnyardgrass",barnyardgrass [2]; [10],30
same,"Barnyardgrass plant response rating (0 to 100 scale, 0 is no effect, 100 is complete control)","barnyardgrass [2]; Postemergence, 500 g ai/ha",80
same,"Plant response rating, Barnyardgrass",barnyardgrass [2]; [11],90
same,"Plant response rating, Rice",rice,0
same,"Plant response rating, Galium",galium; [12],20
same,"Galium plant response rating (0 to 100 scale, 0 is no effect, 100 is complete control)",galium; 500 g ai/ha,20
same,"Plant response rating, Sedge, Umbrella","sedge, umbrella",0
CON(C(=O)C1C(=O)NCC1c1ccc(F)c(F)c1)c1cc([N+](=O)[O-])ccc1F (stereo not drawn) [Compound 175],"Plant response rating, Pigweed",pigweed; [9],0
same,"Plant response rating, Pigweed",pigweed; [10],0
same,"Pigweed plant response rating (0 to 100 scale, 0 is no effect, 100 is complete control)","pigweed; Postemergence, 500 g ai/ha",0
same,"Plant response rating, Pigweed",pigweed; [11],0
same,"Plant response rating, Barnyardgrass",barnyardgrass [1],0
same,"Plant response rating, Foxtail, Giant",giant foxtail; [9],0
same,"Plant response rating, Foxtail, Giant",giant foxtail; [10],0
same,"Foxtail, Giant plant response rating (0 to 100 scale, 0 is no effect, 100 is complete control)","giant foxtail; Postemergence, 500 g ai/ha",0
same,"Plant response rating, Foxtail, Giant",giant foxtail; [11],0
same,"Plant response rating, Ragweed",ragweed; [9],0
same,"Plant response rating, Ragweed",ragweed; [10],0
same,"Ragweed plant response rating (0 to 100 scale, 0 is no effect, 100 is complete control)","ragweed; Postemergence, 500 g ai/ha",0
same,"Plant response rating, Ragweed",ragweed; [11],0
same,"Plant response rating, Corn",corn; [12],0
same,"Corn plant response rating (0 to 100 scale, 0 is no effect, 100 is complete control)",corn; 500 g ai/ha,0
same,"Plant response rating, Ryegrass, Italian","ryegrass, Italian; [9]",0
same,"Plant response rating, Ryegrass, Italian","ryegrass, Italian; [10]",0
same,"Ryegrass, Italian plant response rating (0 to 100 scale, 0 is no effect, 100 is complete control)","ryegrass, Italian; Postemergence, 500 g ai/ha",0
same,"Plant response rating, Ryegrass, Italian","ryegrass, Italian; [11]",0
same,"Plant response rating, Wheat",wheat; [12],0
same,"Wheat plant response rating (0 to 100 scale, 0 is no effect, 100 is complete control)",wheat; 500 g ai/ha,0
same,"Plant response rating, Blackgrass",blackgrass; [12],0
same,"Blackgrass plant response rating (0 to 100 scale, 0 is no effect, 100 is complete control)",blackgrass; 500 g ai/ha,0
same,"Plant response rating, Kochia",kochia; [9],0
same,"Plant response rating, Kochia",kochia; [10],0
same,"Kochia plant response rating (0 to 100 scale, 0 is no effect, 100 is complete control)","kochia; Postemergence, 500 g ai/ha",0
same,"Plant response rating, Kochia",kochia; [11],0
same,"Plant response rating, Ducksalad",ducksalad,30
same,"Plant response rating, Barnyardgrass",barnyardgrass [2]; [9],0
same,"Plant response rating, Barnyardgrass",barnyardgrass [2]; [10],0
same,"Barnyardgrass plant response rating (0 to 100 scale, 0 is no effect, 100 is complete control)","barnyardgrass [2]; Postemergence, 500 g ai/ha",0
same,"Plant response rating, Barnyardgrass",barnyardgrass [2]; [11],0
same,"Plant response rating, Rice",rice,0
same,"Plant response rating, Galium",galium; [12],0
same,"Galium plant response rating (0 to 100 scale, 0 is no effect, 100 is complete control)",galium; 500 g ai/ha,0
same,"Plant response rating, Sedge, Umbrella","sedge, umbrella",0
